Results as given in patent publication US20130224151A1, “Use of FAAH Inhibitors for Treating Abdominal, Visceral and Pelvic Pain” (UNITED STATES OF AMERICA, priority 2010, published 2013).

System: FAAH substrates (AEA, OEA, and PEA)
Assay: Brain and GI tissue fatty acid amide levels in cortagine-induced visceral hypersensitive rats (LC-MS/MS)
Assay type: in vivo, rat
Procedure: Rats were treated with the FAAH inhibitor URB597 [3′-(aminocarbonyl) biphenyl-3-yl cyclohexylcarbamate](3 mg/kg, SC route) or vehicle (DMSO/cremophor/isotonic saline (1:1:8 v:v:v), PO route) in the cortagine-induced visceral hypersensitivity model as described in Example 3. Briefly Male Sprague-Dawley rats were habituated to Bollman cages for 3 days. The following day, rats were anesthetized with isoflurane and a 5 cm balloon pressure sensor was inserted into the distal colon 1 cm from the anus. After 20 min, a first colorectal distension (CRD) baseline was performed (10, 20, 40, 60 mmHg, 20 s duration, 4 min inter-stimulus) and the visceromotor response (VMR) assessed. After the first CRD, rats were treated with URB597 (3 mg/kg in vehicle, SC route) or vehicle (DMSO/cremophor/isotonic saline (1:1:8 v:v:v), PO route). Two hours later, rats were treated with cortagine (10 μg/kg in vehicle, IP route). After 15 min, a second CRD was performed.
Thirty min after the second CRD, rats were anesthetized with isoflurane, decapitated, and brains were collected rapidly, placed on sheets of aluminum foil sitting on dry ice to flash freeze. A 5 cm-long segment of jejunum and a 5 cm-long segment of ascending colon were collected, split open, dipped in ice-cold physiological saline to rinse away intestinal contents, placed on aluminum foil on top of dry ice to flash freeze. Then, brains, jejunum and ascending colon were placed in separate labeled Falcon tubes, respectively, and stored at −80° C.
On each experimental day, one naive untreated rat (n=6 total) (not treated with test compounds, not treated with cortagine and not subjected to CRD assay), kept in normal housing and handling conditions was also euthanized and its brain, jejunum and ascending colon collected as described above. The other rats were euthanized by CO2 inhalation followed by thoracotomy.
Levels of the endocannabinoids N-arachidonoyl-ethanolamide (AEA, anandamide), N-oleoyl-ethanolamide (OEA) and N-palmitoyl-ethanolamide (PEA) in the brain, jejunum and ascending colon were measured by LC-MS/MS.
The fatty acid amides were extracted from the samples and standards by modifications of the method described in Richardson et al, Analytical Biochemistry, 2007, 360: 216-226, as described below.
Intestine samples were removed from the −80° C. freezer and placed on dry ice. Each intestine sample was weighed in a clean, tared 50 mL polypropylene BD Falcon tube and placed on wet ice after recording the weight. Using a glass pipette, 7 mL of (room temp.) 9:1 ethyl acetate:hexane were added to each intestine. Then, 2.5 μL of 5 μg/mL of IS (12.5 ng, prepared as indicated below) was added to each intestine sample. One conical container was removed at a time from the wet ice and homogenized until the tissue was uniformly minced. Using a homogenizer probe, the contents were homogenized for 30 seconds; 3 mL of water were added to each intestine sample, then homogenized for an additional 15 seconds. The homogenizer probe was rinsed with water between samples and with water and 70% EtOH between dose groups. The homogenates were vortexed for ˜5 sec then centrifuged at […], 3500 rpm for 20 minutes. The ethyl acetate layer (top layer) was recovered and placed in 15 mL glass tubes. The solvent was evaporated under nitrogen (TurboVap, 55° C.) until dry and the tissue extracts were reconstituted in 0.25 mL of 1:3 CHCl3:MeOH. Then the glass tubes were placed in a 37° C. shaking water bath for 5 min and vortexed again to re-suspend them. The samples were transferred to Eppendorf tubes and centrifuged (at room temp) at 13,000 rpm for 3 min. Then, 75 μL of each sample and standard was transferred to a 96 deep well plate on wet ice, and the remaining supernatant was stored at −80° C. The samples and standards were diluted to 1:1 using a multi-channel pipette by adding 75 μL of 100 ng/mL d-4-AEA in ice-cold methanol and pipetting up and down to mix. […]

[1] = URB597 3 mg/kg SC, first trial, Student's t test

For `NC(=O)c1cccc(-c2cccc(OC(=O)NC3CCCCC3)c2)c1` [URB597, 3′-(aminocarbonyl) biphenyl-3-yl cyclohexyl carbamate, reference compound], the “levels of AEA, OEA and PEA in the brain, ascending colon and jejunum” value (URB597 3 mg/kg SC single administration, cortagine-induced visceral hypersensitive rats, first trial, 3 mg/kg) was “elevated levels of the three FAAH substrates”, the “levels of AEA and PEA in the jejunum” value [1] was “statistically different from those in the naïve rats” and the “levels of AEA, OEA, and PEA in the ascending colon versus vehicle treated and naïve rats” value [1] was “statistically different from those in the vehicle treated and naïve rats”. For the same molecule, the “levels of AEA, OEA, and PEA in the brain versus vehicle treated and naïve rats” value [1] was “statistically different from those in the vehicle treated and naïve rats”, the “levels of OEA in the jejunum” value [1] was “statistically different from those in the vehicle treated and naïve rats” and the “levels of AEA, OEA and PEA in the brain, ascending colon and jejunum” value (second trial, URB597 3 mg/kg SC + cortagine 10 ug/kg IP) was “elevated levels of the three FAAH substrates”.
